Source: US7057171B2, “Patch-clamping and its use in analyzing subcellular features” (priority 2001, dated 2006)

System: Cl^− channel
Assay: Whole-cell Cl^− current recording (patch-clamp) in rat cardiac myocytes
Type: cell-based
Conditions: rat left ventricle cardiac myocytes, currents measured at plateau level, 30 μM nifedipine in bath
Excerpt: FIG. 4: Channels with 3 different current types were found. (A) A small-conductance inwardly rectifying channel (ClSIR). (B) A large-conductance inwardly rectifying channel (ClLIR). (C) An outwardly rectifying channel (ClOR). For each type of channel, a family of currents at different voltages (on the left side of the panels), current-voltage characteristics (on the top right side of the panels) and channel densities at different surface positions (on the bottom right side of the panels) are shown. The mean reversal potential was −31.2±2.4 mV (n=5) for (A)−31.8±3.4 mV (n=5) for (B) and −33.5±3.0 mV (n=4) for (C). (D) Calculated whole-cell current extrapolated from single-channel currents. (E) Current-voltage characteristics of experimental whole-cell currents obtained from 22 cells (black circles). […] Currents were measured at plateau level.
Left ventricle cells from the rat myocardium were isolated as previously described (Harding et al, J. Mol. Cell Cardiol. 20:635–647, 1988). Cells were allowed to attach to polystyrene cell culture dishes filled with bath solutions.
the bath solution contained (in mM) K-glutamate 120, KCl 25, MgCl2 2, CaCl2 1, EGTA 2, glucose 10 and HEPES 10, adjusted to pH 7.4 with CsOH. The pipette backfill solution contained N-methyl-D-glucamine-Cl (NMDG-Cl) 108, HEPES 5, glucose 5.5 and EGTA 1, adjusted to pH 7.4 with TEA-OH. […]

| Structure (SMILES) | Block of experimental whole-cell Cl^− currents (1 mM, n=5) | Block of experimental whole-cell Cl^− currents (300 μM, n=12) |
| --- | --- | --- |
| [Cd+2] [Cd^2+] | almost completely blocked | – |
| CC(=O)Nc1ccc(C=Cc2ccc(N=C=S)cc2S(=O)(=O)O)c(S(=O)(=O)O)c1 [SITS, stilbene disulfonate] | – | partially blocked |
